“Also recorded” adds a separate entry of the source.
Columns and labels:
[1] = 30-day survival of uninfected (healthy) mice treated with cisplatin, with or without hydration and disulfiram; type: in vivo
Protocol: Ten animals were used in each of three test procedures for the three regimens of drug dosing. The test procedures included: no hydration of mice; hydration of mice; and hydration plus disulfiram administration to the animals.
(§1) All groups included 10 mice except where indicated. Therapy was 3 mg/kg
indicated. Disulfiram (250 mg/kgorally) was given exactly four hours
Hydration was 3 ml of physiologic saline
given subcutaneously four times per day. Survival is given as % survival
30 days following initial therapy.
^a Average survival from four experiments with 10 mice per experiment

[2] = Histopathology of mice treated with cisplatin; type: in vivo
Description: Thus, histopathologic studies were requisite.
Two mice from each of these groups were necropsied at various times following cisplatin treatment. […] Tissues were fixed in 10% neutral buffered formalin, imbedded in paraffin, sectioned to 6-8μ and stained with hematoxylin and eosin.

[3] = test system: Trypanosoma rhodesiense; test: 30-day survival and cure of Trypanosoma rhodesiense-infected mice treated with cisplatin; type: in vivo; settings: for cure, survival and damage on concurrent treatment: hydrated, trypanosome-infected mice, cisplatin and disulfiram or diethyl dithiocarbamate
Protocol: Laboratory animals of diverse sorts have been employed in studies with trypanosomes. […] This method has been reported in detail: L. Rane, D. S. Rane, and K. E. Kinnamon, Am. J. Trop. Med. Hyg., 25, 395-400 (1976).
(§2) Anti-trypanosomal activity reported in this invention was determined according to the procedure outlined in the article of L. Rane, et al entitled "Screening Large Numbers of Compounds in a Model Based on Mortality of Trypanosoma rhodesiense Infected Mice," The American Journal of Tropical Medicine and Hygiene, Volume 25, No. 3, pages 395-400 ([…]). To summarize, however, experiments were conducted with the Wellcome CT strain of Trypanosoma rhodesiense originally isolated in 1934. The test system is patterned after the one developed and employed in testing of compounds for activity against Plasmodium berghei malaria [see Osdene, et al, New Series of Potential Antimalarial Agents, J. Med. Chem., 10, 431-434 (1967)]. The test system is based on comparisons of responses to test compounds by ICR/HA Swiss mice infected with the strain as expressed in mean survival times compared with mean survival times of untreated controls.
Test mice (of similar age were females and 21 to 25 grams in weight) received an intraperitoneal injection of 0.5 ml of a 1:50,000 dilution of heparinized heart blood drawn from donor mice infected with Trypanosoma rhodesiense 3 days earlier.
Deaths prior to the fourth day (when untreated controls begin to die) were regarded as not related to the infection and were scored as "toxic deaths." Treated animals were kept under observation for 30 days. Parasitemias were monitored by thick blood film smears (taken from tail veins of the mice) every 2 days for the 30-day course of the experiment. Survivors at the end of 30 days were considered cured. […] In calculating mean survival times, toxic deaths and 30 day survivors were not included.
as §1
trypanosomes and subsequently given intraperitoneally for number of days
indicated in first column. Disulfiram (250 mg/kgorally) was given exactly
physiologic saline given subcutaneously four times per day. Survival is
given as % survival 30 days following initial therapy.

[4] = test system: Trypanosoma rhodesiense; test: Parasitemia in infected mice, monitored by thick blood film smears; type: in vivo
Protocol: as §2
By using a standard inoculum of 1×10^6 trypanosomes, it was possible to produce a uniform disease fatal to 100% of untreated animals within four to six days, with a mean survival time of 4.45±0.24 days. Test mice (of similar age were females and 21 to 25 grams in weight) received an intraperitoneal injection of 0.5 ml of a 1:50,000 dilution of heparinized heart blood drawn from donor mice infected with Trypanosoma rhodesiense 3 days earlier.
Deaths prior to the fourth day (when untreated controls begin to die) were regarded as not related to the infection and were scored as "toxic deaths." Treated animals were kept under observation for 30 days. Parasitemias were monitored by thick blood film smears (taken from tail veins of the mice) every 2 days for the 30-day course of the experiment. Survivors at the end of 30 days were considered cured. An increase of 100% in mean survival time over control animals was considered as a minimum effective response. In calculating mean survival times, toxic deaths and 30 day survivors were not included.
The therapeutic regimen was that described in Examples 1 through 3.

[5] = test system: Trypanosoma rhodesiense; test: Subinoculation of tissues (blood, heart, brain) of cured mice into healthy recipient mice; type: in vivo, Trypanosoma rhodesiense in mice; settings: donors: cisplatin with hydration plus disulfiram
Description: The considerable and complex nature of problems in various developing countries of tropical Africa have been worsened by the increasing incidents of trypanosomiasis. Drugs for the management of this highly fatal infection have been generally inadequate or/and highly toxic to the victim. The present invention relates to a novel means for alleviating the toxic effects of an agent useful in the treatment of highly fatal trypanosome infections in animals. […] However, cures have been achieved safely by concurrent hydration of the animals and oral dosing with disulfiram. This procedure was firmly established as affording parasitologic cures of the experimental animals by subinoculation of tissues (blood, brain, heart) into recipient mice from mice cured of trypanosomiasis in accordance with the method of this invention.
Some animals suffered relapses 6 to 14 days after the last doses. […] All survivors at 30 days were sacrificed, and tissues (blood; heart; brain) subinoculated into healthy mice. […] Thus, no latent trypanosomes had survived the therapy.

[6] = test system: Trypanosoma rhodesiense; settings: Kinnamon et al.; peanut oil vehicle; cited from earlier work
[7] = no hydration, 3 mg/kg/day i.p., 7 days
[8] = with hydration, 3 mg/kg/day i.p., 7 days
[9] = mice treated with cisplatin alone
[10] = hydration + disulfiram, cisplatin 3 mg/kg/day, 6 days
[11] = with hydration, 3 mg/kg/day, 6 days

## N.N.[Cl][Pt][Cl] [Cisplatin, cis-diamminedichloroplatinum (II)]
[1]; hydration + disulfiram (250 mg/kg orally), cisplatin 3 mg/kg/day i.p., 6 days
  30-Day survival: 100%
[1]; hydration + disulfiram (250 mg/kg orally), cisplatin 3 mg/kg/day i.p., 7 days, average of four experiments
  30-Day survival: 100%
[1]; hydration with or without disulfiram
  mortality from cisplatin administration: ameliorated by hydration, with or without use of disulfiram
[1]; no hydration, 3 mg/kg/day i.p., 5 days
  30-Day survival: 100%
[1]; no hydration, 3 mg/kg/day i.p., 6 days
  30-Day survival: 10%
[1]; [7]
  30-Day survival: 0%
[1]; with hydration, 3 mg/kg/day i.p., 6 days
  30-Day survival: 100%
[1]; [8]
  30-Day survival: 90%
[2]; cisplatin alone, necropsied on day 18 or later
  renal cortex findings: multifocal accumulations of lymphoplasmacytic inflammatory cells with areas of tubular regeneration
[2]; [9]
  early renal lesions: acute proximal and distal tubular necrosis
  lesions other than renal: colonic and jejunal enteritis, and interstitial pneumonia with edema and vascular congestion
  renal lesions (frequency): highly common
[3]; 3 mg/kg/day for 7 days
  curative effects on Trypanosoma rhodesiense infections: does exert curative effects
[3]
  cure, survival and damage on concurrent treatment: effected cures of the infection with very good survival and little damage to test animals
[3]; hydration + disulfiram (250 mg/kg orally), cisplatin 3 mg/kg/day i.p., 6 days, average of four experiments
  30-Day survival of trypanosome-infected mice: 62.5%
[3]; hydration plus disulfiram, cisplatin 3 mg/kg daily for seven days
  cure of Trypanosoma rhodesiense infection: effective in curing mice; also recorded: fully curative, and not merely palliative
[3]; [7]
  30-Day survival of trypanosome-infected mice: 0%
[3]; [8]
  30-Day survival of trypanosome-infected mice: 57%
[3]; with hydration, 7-day regimen
  cure of Trypanosoma rhodesiense infection: effective in curing mice
[4]; cisplatin alone, 3 mg/kg/day, 5 days
  clearance of trypanosomes from bloodstream: failed to clear the bloodstream of trypanosomes
[4]; [10]
  clearance of trypanosomes from blood: temporarily cleared of trypanosomes; also recorded: Blood of all mice was cleared of trypanosones
  relapse of parasitemia: relapses of parasitemia occurred; also recorded: Relapse of parasitemia
[4]; no hydration, 3 mg/kg/day, 7 days
  clearance of trypanosomes from blood: Blood of all mice was cleared of trypanosones
[4]; some animals, hydration + disulfiram, cisplatin 6 daily doses
  time of relapse after the last doses: 6 to 14 days
[4]; [11]
  clearance of trypanosomes from blood: Blood of all mice was cleared of trypanosones
  relapse of parasitemia: Relapse of parasitemia
[4]; with hydration, 3 mg/kg/day, 7 days
  clearance of trypanosomes from blood: Blood of all mice was cleared of trypanosones
[5]
  trypanosome infection in recipient mice after subinoculation of tissues of survivors: did not produce the trypanosomiasis in the recipient mice; also recorded: No recipient mice developed trypanosome infection
[6]
  anti-trypanosomal effects in prior work: anti-trypanosomal effects at dose levels which were unsuitably toxic to the test animals

## CCN(CC)C(=S)SSC(=S)N(CC)CC [Disulfiram, bis-(diethylthiocarbamoyl) disulfide]
[2]; oral disulfiram given with cisplatin
  protection from toxic effects of cisplatin: protected the kidneys and gastrointestinal tracts from the toxic effects
[3]; disulfiram alone, model test system
  anti-trypanosomal activity of disulfiram alone: lack anti-trypanosomal activity
[3]
  cure, survival and damage on concurrent treatment: effected cures of the infection with very good survival and little damage to test animals

## CCN(CC)C(=S)S [diethyl dithiocarbamate]
[3]
  cure, survival and damage on concurrent treatment: effected cures of the infection with very good survival and little damage to test animals

— patent US4532122A, “Anti-trypanosomal activity of platinum co-ordination compounds” (The United States of America as represented by the …, priority 1981, dated 1985)
